From the CheMixHub viscosity set
± gives the uncertainty stated by the source.

Test: xn = mol fraction of the nth substance listed

CCOC(=O)c1ccccc1 + CCCCCCCC
101 kPa
Conditions | viscosity [mPa·s]
298.15 K, x2 = 0.0634 | 1.743 ± 0.054
298.15 K, x2 = 0.1034 | 1.624 ± 0.051
298.15 K, x2 = 0.1463 | 1.503 ± 0.047
298.15 K, x2 = 0.1843 | 1.405 ± 0.044
298.15 K, x2 = 0.2315 | 1.299 ± 0.041
298.15 K, x2 = 0.2774 | 1.203 ± 0.038
298.15 K, x2 = 0.3224 | 1.125 ± 0.035
298.15 K, x2 = 0.4189 | 0.973 ± 0.031
298.15 K, x2 = 0.4608 | 0.92 ± 0.029
298.15 K, x2 = 0.5113 | 0.861 ± 0.027
298.15 K, x2 = 0.5549 | 0.813 ± 0.026
298.15 K, x2 = 0.6018 | 0.767 ± 0.024
298.15 K, x2 = 0.6476 | 0.726 ± 0.023
298.15 K, x2 = 0.6978 | 0.686 ± 0.022
298.15 K, x2 = 0.7588 | 0.644 ± 0.02
298.15 K, x2 = 0.8037 | 0.616 ± 0.02
298.15 K, x2 = 0.8646 | 0.583 ± 0.019
298.15 K, x2 = 0.9214 | 0.556 ± 0.018
303.15 K, x1 = 0.1144 | 0.526 ± 0.011
303.15 K, x1 = 0.2227 | 0.58 ± 0.012
303.15 K, x1 = 0.3291 | 0.655 ± 0.014
303.15 K, x1 = 0.4327 | 0.738 ± 0.016
303.15 K, x1 = 0.532 | 0.837 ± 0.018
303.15 K, x1 = 0.6312 | 0.961 ± 0.02
303.15 K, x1 = 0.7281 | 1.11 ± 0.023
303.15 K, x1 = 0.8205 | 1.29 ± 0.027
303.15 K, x1 = 0.9123 | 1.505 ± 0.031
308.15 K, x1 = 0.1144 | 0.499 ± 0.011
308.15 K, x1 = 0.2227 | 0.552 ± 0.012
308.15 K, x1 = 0.3291 | 0.616 ± 0.013
308.15 K, x1 = 0.4327 | 0.697 ± 0.015
308.15 K, x1 = 0.532 | 0.786 ± 0.017
308.15 K, x1 = 0.6312 | 0.896 ± 0.019
308.15 K, x1 = 0.7281 | 1.033 ± 0.022
308.15 K, x1 = 0.8205 | 1.197 ± 0.025
308.15 K, x1 = 0.9123 | 1.385 ± 0.029
308.15 K, x2 = 0.0649 | 1.485 ± 0.046
308.15 K, x2 = 0.1092 | 1.382 ± 0.043
308.15 K, x2 = 0.1488 | 1.3 ± 0.041
308.15 K, x2 = 0.193 | 1.212 ± 0.038
308.15 K, x2 = 0.2347 | 1.13 ± 0.035
308.15 K, x2 = 0.2789 | 1.054 ± 0.033
308.15 K, x2 = 0.3252 | 0.98 ± 0.031
308.15 K, x2 = 0.3696 | 0.919 ± 0.029
308.15 K, x2 = 0.4206 | 0.854 ± 0.027
308.15 K, x2 = 0.4626 | 0.807 ± 0.025
308.15 K, x2 = 0.5118 | 0.757 ± 0.024
308.15 K, x2 = 0.5624 | 0.709 ± 0.022
308.15 K, x2 = 0.5958 | 0.682 ± 0.022
308.15 K, x2 = 0.6528 | 0.639 ± 0.02
308.15 K, x2 = 0.7049 | 0.605 ± 0.019
308.15 K, x2 = 0.756 | 0.575 ± 0.018
308.15 K, x2 = 0.8027 | 0.55 ± 0.018
308.15 K, x2 = 0.8565 | 0.525 ± 0.017
308.15 K, x2 = 0.9175 | 0.501 ± 0.016
313.15 K, x1 = 0.1144 | 0.468 ± 0.01
313.15 K, x1 = 0.2227 | 0.516 ± 0.011
313.15 K, x1 = 0.3291 | 0.574 ± 0.012
313.15 K, x1 = 0.4327 | 0.649 ± 0.014
313.15 K, x1 = 0.532 | 0.732 ± 0.015
313.15 K, x1 = 0.6312 | 0.835 ± 0.018
313.15 K, x1 = 0.7281 | 0.961 ± 0.02
313.15 K, x1 = 0.8205 | 1.105 ± 0.023
313.15 K, x1 = 0.9123 | 1.277 ± 0.027
318.15 K, x2 = 0.0385 | 1.272 ± 0.04
318.15 K, x2 = 0.0833 | 1.188 ± 0.037
318.15 K, x2 = 0.1243 | 1.117 ± 0.035
318.15 K, x2 = 0.1716 | 1.038 ± 0.033
318.15 K, x2 = 0.2145 | 0.972 ± 0.03
318.15 K, x2 = 0.263 | 0.905 ± 0.028
318.15 K, x2 = 0.3062 | 0.85 ± 0.027
318.15 K, x2 = 0.356 | 0.793 ± 0.025
318.15 K, x2 = 0.4002 | 0.747 ± 0.024
318.15 K, x2 = 0.4505 | 0.698 ± 0.022
318.15 K, x2 = 0.4957 | 0.662 ± 0.021
318.15 K, x2 = 0.5474 | 0.622 ± 0.02
318.15 K, x2 = 0.5939 | 0.592 ± 0.019
318.15 K, x2 = 0.6472 | 0.56 ± 0.018
318.15 K, x2 = 0.6945 | 0.536 ± 0.017
318.15 K, x2 = 0.7483 | 0.51 ± 0.016
318.15 K, x2 = 0.7987 | 0.491 ± 0.016
318.15 K, x2 = 0.8549 | 0.469 ± 0.015
318.15 K, x2 = 0.9034 | 0.452 ± 0.014

CC1CCCCC1 + CCCCCCCCCC
viscosity [mPa·s], 101 kPa
Conditions | 293.15 K | 298.15 K | 303.15 K | 308.15 K
x1 = 0.0406 | 0.9179 ± 0.0075 | 0.8528 ± 0.007 | 0.7888 ± 0.0065 | –
x1 = 0.1014 | – | 0.843 ± 0.015 | 0.787 ± 0.014 | 0.731 ± 0.013
x1 = 0.2029 | 0.879 ± 0.0076 | 0.8207 ± 0.0072 | 0.76 ± 0.0067 | –
x1 = 0.2034 | – | 0.824 ± 0.014 | 0.77 ± 0.013 | 0.716 ± 0.013
x1 = 0.2805 | 0.8623 ± 0.0077 | 0.8054 ± 0.0073 | 0.747 ± 0.0068 | –
x1 = 0.3035 | – | 0.806 ± 0.014 | 0.753 ± 0.013 | 0.7 ± 0.012
x1 = 0.3569 | 0.8458 ± 0.0078 | 0.7898 ± 0.0074 | 0.7352 ± 0.0069 | –
x1 = 0.4055 | – | 0.787 ± 0.014 | 0.735 ± 0.013 | 0.684 ± 0.012
x1 = 0.4409 | 0.8287 ± 0.0079 | 0.7729 ± 0.0074 | 0.723 ± 0.007 | –
x1 = 0.5004 | – | 0.769 ± 0.013 | 0.719 ± 0.013 | 0.669 ± 0.012
x1 = 0.5991 | 0.7985 ± 0.0082 | 0.7421 ± 0.0076 | 0.7008 ± 0.0073 | –
x1 = 0.5998 | – | 0.751 ± 0.013 | 0.702 ± 0.012 | 0.654 ± 0.012
x1 = 0.6756 | 0.7845 ± 0.0083 | 0.7282 ± 0.0077 | 0.6906 ± 0.0074 | –
x1 = 0.7041 | – | 0.731 ± 0.013 | 0.684 ± 0.012 | 0.637 ± 0.012
x1 = 0.7618 | 0.7694 ± 0.0084 | 0.7135 ± 0.0078 | 0.6796 ± 0.0075 | –
x1 = 0.8039 | – | 0.713 ± 0.013 | 0.667 ± 0.012 | 0.621 ± 0.011
x1 = 0.8475 | 0.7548 ± 0.0085 | 0.7009 ± 0.008 | 0.6683 ± 0.0076 | –
x1 = 0.8993 | – | 0.695 ± 0.012 | 0.651 ± 0.012 | 0.606 ± 0.011
x1 = 0.9148 | 0.7428 ± 0.0086 | 0.6913 ± 0.008 | 0.6592 ± 0.0077 | –

CCCCCCCCCCCCCCCCCCCCCCCC + CCCCCCCCCC
Conditions | viscosity [mPa·s]
313.2 K, 101.3 kPa, x2 = 0.8 | 1.48 ± 0.02

CCCCCCCCCCCl + CCCCCCCCCC
viscosity [mPa·s], 101 kPa
Conditions | x2 = 0.1 | x2 = 0.2004 | x2 = 0.2954 | x2 = 0.3988 | x2 = 0.4972 | x2 = 0.593 | x2 = 0.6968 | x2 = 0.7947 | x2 = 0.8906
293.15 K | 1.796 ± 0.016 | 1.66 ± 0.015 | 1.539 ± 0.014 | 1.419 ± 0.013 | 1.315 ± 0.012 | 1.225 ± 0.011 | 1.136 ± 0.011 | 1.063 ± 0.01 | 0.997 ± 0.009
298.15 K | 1.649 ± 0.015 | 1.523 ± 0.014 | 1.415 ± 0.013 | 1.307 ± 0.012 | 1.214 ± 0.011 | 1.133 ± 0.011 | 1.054 ± 0.01 | 0.99 ± 0.009 | 0.931 ± 0.009
303.15 K | 1.5 ± 0.014 | 1.388 ± 0.013 | 1.291 ± 0.012 | 1.196 ± 0.011 | 1.114 ± 0.01 | 1.042 ± 0.01 | 0.973 ± 0.009 | 0.917 ± 0.009 | 0.867 ± 0.008
308.15 K | 1.353 ± 0.012 | 1.25 ± 0.012 | 1.167 ± 0.011 | 1.084 ± 0.01 | 1.013 ± 0.01 | 0.951 ± 0.009 | 0.891 ± 0.008 | 0.844 ± 0.008 | 0.802 ± 0.008
